This passage reports AC50, EC50 and IC50 results from ChEMBL document CHEMBL1201862, “PubChem BioAssay data set” (2004).

Activity calls are given as the source filed them. A value given as a limit tells only on which side of the number the result lay.

The target of test [1] is T1, Cytochrome P450 1A2 (Homo sapiens, UniProt P05177).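 Also: PubChem cytochrome P450 panel assay, CYP1A2 panel member.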
T1 sequence (P05177 whole entry): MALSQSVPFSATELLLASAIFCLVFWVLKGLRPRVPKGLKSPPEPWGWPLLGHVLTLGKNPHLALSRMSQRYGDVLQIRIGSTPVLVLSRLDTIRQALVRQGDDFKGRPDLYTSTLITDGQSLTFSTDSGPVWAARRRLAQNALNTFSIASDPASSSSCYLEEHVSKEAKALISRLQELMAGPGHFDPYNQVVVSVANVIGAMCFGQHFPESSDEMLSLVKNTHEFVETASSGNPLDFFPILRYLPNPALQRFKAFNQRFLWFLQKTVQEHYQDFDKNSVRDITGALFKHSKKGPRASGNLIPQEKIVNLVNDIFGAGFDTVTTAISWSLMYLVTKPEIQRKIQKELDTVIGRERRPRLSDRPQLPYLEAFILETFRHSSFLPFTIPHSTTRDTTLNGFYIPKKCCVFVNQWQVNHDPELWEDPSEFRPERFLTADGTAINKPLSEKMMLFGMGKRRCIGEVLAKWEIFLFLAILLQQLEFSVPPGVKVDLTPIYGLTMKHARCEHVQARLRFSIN

Test [2] has as its target Cytochrome P450 2D6 (Homo sapiens, UniProt P10635).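 Also: CYP2D6 member of a cytochrome P450 panel assay.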
For test [3], the target named is Heat shock protein HSP 90-alpha (Homo sapiens, UniProt P07900). The test is classed as functional, organism-based.
In test [4] the target is T2, Protein RecA (Mycobacterium tuberculosis, UniProt P9WHJ3).
T2 sequence (P9WHJ3 whole entry): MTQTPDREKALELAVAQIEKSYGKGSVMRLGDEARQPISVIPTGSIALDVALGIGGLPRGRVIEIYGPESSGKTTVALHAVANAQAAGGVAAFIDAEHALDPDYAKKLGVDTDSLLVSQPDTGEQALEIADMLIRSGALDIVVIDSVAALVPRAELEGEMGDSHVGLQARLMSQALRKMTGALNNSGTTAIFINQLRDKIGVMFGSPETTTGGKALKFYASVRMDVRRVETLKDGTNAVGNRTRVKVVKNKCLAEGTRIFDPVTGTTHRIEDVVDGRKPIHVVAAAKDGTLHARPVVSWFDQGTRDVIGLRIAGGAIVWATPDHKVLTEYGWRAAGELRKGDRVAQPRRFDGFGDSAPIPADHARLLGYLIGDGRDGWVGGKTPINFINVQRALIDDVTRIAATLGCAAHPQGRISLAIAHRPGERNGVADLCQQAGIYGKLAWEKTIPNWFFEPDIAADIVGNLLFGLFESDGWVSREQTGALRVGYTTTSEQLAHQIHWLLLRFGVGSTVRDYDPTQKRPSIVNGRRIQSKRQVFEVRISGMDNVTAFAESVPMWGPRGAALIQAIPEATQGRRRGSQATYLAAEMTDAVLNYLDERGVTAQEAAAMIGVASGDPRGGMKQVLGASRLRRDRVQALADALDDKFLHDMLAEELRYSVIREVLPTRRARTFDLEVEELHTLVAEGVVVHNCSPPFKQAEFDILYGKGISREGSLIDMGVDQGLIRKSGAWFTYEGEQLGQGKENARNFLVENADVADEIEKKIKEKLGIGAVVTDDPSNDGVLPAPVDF
Description: Fluorescence Cell-Free Homogeneous Dose Retest to Identify Inhibitors of RecA-Intein Splicing Activity. [Related pubchem assays (depositor defined):AID2097, AID2223, AID489010, AID492950]. The test is classed as functional.

Test [5] addresses T3, Replicative DNA helicase DnaB (Mycobacterium tuberculosis, UniProt P9WMR3).
T3 sequence (P9WMR3 whole entry): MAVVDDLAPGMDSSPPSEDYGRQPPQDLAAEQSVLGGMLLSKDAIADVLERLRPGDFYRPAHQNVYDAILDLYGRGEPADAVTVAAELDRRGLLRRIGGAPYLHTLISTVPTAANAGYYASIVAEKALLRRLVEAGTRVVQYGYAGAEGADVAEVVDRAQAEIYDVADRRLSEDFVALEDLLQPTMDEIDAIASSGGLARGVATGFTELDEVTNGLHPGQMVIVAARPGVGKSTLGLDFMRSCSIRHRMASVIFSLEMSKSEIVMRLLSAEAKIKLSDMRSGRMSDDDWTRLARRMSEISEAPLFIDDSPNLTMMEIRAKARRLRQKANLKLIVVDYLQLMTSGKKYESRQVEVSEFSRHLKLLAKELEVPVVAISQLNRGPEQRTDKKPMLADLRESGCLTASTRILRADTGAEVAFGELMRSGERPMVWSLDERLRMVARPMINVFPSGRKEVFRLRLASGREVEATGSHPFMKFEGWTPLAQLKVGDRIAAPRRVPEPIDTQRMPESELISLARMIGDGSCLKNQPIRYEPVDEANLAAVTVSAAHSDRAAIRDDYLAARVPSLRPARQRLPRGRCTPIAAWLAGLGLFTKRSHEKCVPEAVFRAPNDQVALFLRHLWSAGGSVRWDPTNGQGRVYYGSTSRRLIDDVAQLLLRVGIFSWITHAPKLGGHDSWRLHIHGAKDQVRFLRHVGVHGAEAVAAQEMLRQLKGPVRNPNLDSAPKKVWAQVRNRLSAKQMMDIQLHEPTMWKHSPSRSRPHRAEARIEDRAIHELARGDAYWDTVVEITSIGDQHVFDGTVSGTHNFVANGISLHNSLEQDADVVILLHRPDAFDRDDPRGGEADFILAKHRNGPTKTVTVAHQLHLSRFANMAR
Description: DnaB intein splicing inhibitors, dose response, biochemical, cell-free fluorescence (AID 449749). Format: functional.

For test [6], the target named is T4, Corticotropin-releasing factor receptor 2/Corticotropin-releasing factor-binding protein (Homo sapiens, UniProt P24387+Q13324).
T4 sequence (Q13324 whole entry): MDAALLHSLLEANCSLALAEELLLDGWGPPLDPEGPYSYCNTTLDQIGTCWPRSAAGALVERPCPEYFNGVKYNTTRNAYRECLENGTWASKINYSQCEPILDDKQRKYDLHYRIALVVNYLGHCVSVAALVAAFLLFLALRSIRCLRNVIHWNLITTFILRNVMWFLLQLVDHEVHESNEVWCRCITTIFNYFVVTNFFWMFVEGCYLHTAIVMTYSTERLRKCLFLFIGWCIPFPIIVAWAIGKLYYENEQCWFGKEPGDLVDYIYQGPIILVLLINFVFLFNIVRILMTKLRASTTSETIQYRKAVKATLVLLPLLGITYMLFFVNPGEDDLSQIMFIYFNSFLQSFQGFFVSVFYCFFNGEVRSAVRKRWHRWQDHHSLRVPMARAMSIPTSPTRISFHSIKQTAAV
T4 sequence (P24387 whole entry): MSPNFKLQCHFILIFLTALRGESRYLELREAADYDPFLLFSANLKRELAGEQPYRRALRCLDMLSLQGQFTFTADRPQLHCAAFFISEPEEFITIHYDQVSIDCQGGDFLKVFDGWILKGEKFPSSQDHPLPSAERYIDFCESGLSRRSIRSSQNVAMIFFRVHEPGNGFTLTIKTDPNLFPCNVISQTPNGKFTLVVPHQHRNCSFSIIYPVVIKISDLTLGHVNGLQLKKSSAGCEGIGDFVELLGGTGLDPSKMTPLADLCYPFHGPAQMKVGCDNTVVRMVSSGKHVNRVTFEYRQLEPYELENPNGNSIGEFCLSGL
Nature of the test: activators of CRF receptor 2 with binding protein – uHTS hits, confirmation (AID 602473). The test is classed as functional. The following applies: read-out: EC50_Mean.

Test [7] addresses T4, Corticotropin-releasing factor receptor 2/Corticotropin-releasing factor-binding protein. Description: Dose Response confirmation of uHTS hits for small molecule antagonists of the CRF-binding protein and CRF-R2 receptor complex. The test is classed as functional. The following applies: read-out: IC50_Mean.
Test [8] deals with Cytochrome P450 3A4 (Homo sapiens, UniProt P08684).
Cytochrome P450 3A4, sequence (P08684 whole entry): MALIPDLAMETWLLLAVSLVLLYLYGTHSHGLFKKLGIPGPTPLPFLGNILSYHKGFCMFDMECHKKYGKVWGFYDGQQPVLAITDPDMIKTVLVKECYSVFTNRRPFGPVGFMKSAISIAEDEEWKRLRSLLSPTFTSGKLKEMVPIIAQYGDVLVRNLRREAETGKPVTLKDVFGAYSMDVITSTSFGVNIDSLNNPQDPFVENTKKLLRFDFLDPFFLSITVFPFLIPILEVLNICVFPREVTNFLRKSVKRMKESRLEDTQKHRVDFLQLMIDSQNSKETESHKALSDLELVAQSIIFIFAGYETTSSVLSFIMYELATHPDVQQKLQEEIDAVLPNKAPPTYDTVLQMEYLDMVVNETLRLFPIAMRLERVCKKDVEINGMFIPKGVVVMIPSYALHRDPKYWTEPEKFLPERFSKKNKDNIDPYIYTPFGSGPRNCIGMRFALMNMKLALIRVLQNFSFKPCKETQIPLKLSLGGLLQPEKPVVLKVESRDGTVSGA
Test [9] in a line: Luminescence Cell-Based Dose Confirmation HTS to Identify Activators of 5'UTR Stem-Loop Driven Alpha-Synuclein mRNA Translation in H4 Neuroglioblastoma Cells. [Related pubchem assays: 1829 (Project Summary), 1814 (Primary HTS)]. Format: functional.
Test [10] has as its system H4. Nature of the test: Luminescence Cell-Based Dose Response HTS to Identify Activators of 5'UTR Stem-Loop Driven Prion Protein mRNA Translation in H4 Neuroglioblastoma Cells. [Related pubchem assays: 1829 (Project Summary), 1814 (Primary HTS)]. Format: functional. The following applies: Homo sapiens.
The nature of test [11]: Luminescence Cell-Based Dose Response HTS to Identify Activators of Luciferase Translation or Activity in H4 […] Cells. [Related pubchem assays: 1829 (Project Summary), 1814 (Primary HTS)]. The test is classed as functional.
Test [12] can be described thus: Trypanosoma cruzi growth suppression in host cells – NIH3T3 host cells, beta-gal luminescence, confirmation (AID 2044).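 Also: intracellular parasites grown in NIH/3T3 mouse fibroblasts as host cells; luminescent beta-galactosidase reporter signal from transgenic T. cruzi replicating inside host cells; inhibitors lower the luminescence signal.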 Format: functional, cell-based.
The nature of test [13]: NIH3T3 cell viability loss – ATP luminescence, mouse fibroblasts, counter-screen, dose response (AID 2010).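 Also: cells exposed to compound for about 90 hours before reading.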 Format: functional, cell-based.
A short description of test [14]: non-specific 3'UTR reporter inhibition in Clone20-Shn3RL – cell-based, Renilla luciferase, cherry-picked, counter-screen for Shn3 inhibitor project, dose response (AID 624133). The test is classed as functional.
For test [15], the target named is Cytochrome P450 2C19 (Homo sapiens, UniProt P33261). Description: Cytochrome panel assay with activity outcomes. Panel member name: p450-cyp2c19 Compounds with AC50 equal or less than 10 uM are considered active. The test is classed as functional. The following applies: read-out: AC50.
Cytochrome P450 2C19, sequence (P33261 whole entry): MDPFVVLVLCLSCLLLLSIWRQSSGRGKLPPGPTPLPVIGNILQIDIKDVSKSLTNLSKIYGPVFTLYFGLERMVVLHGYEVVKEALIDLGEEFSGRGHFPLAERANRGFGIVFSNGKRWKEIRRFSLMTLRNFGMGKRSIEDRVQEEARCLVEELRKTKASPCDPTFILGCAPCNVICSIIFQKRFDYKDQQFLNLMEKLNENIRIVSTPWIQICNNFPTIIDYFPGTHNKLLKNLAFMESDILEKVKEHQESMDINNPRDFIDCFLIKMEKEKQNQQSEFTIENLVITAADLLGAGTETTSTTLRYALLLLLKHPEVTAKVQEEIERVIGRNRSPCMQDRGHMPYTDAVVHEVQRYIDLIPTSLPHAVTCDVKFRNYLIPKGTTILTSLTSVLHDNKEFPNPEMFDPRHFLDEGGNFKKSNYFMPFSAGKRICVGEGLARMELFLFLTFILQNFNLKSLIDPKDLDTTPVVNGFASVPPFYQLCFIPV
Test [16] addresses Cytochrome P450 2C9 (Homo sapiens, UniProt P11712).

Cytochrome P450 2D6, sequence (P10635 whole entry): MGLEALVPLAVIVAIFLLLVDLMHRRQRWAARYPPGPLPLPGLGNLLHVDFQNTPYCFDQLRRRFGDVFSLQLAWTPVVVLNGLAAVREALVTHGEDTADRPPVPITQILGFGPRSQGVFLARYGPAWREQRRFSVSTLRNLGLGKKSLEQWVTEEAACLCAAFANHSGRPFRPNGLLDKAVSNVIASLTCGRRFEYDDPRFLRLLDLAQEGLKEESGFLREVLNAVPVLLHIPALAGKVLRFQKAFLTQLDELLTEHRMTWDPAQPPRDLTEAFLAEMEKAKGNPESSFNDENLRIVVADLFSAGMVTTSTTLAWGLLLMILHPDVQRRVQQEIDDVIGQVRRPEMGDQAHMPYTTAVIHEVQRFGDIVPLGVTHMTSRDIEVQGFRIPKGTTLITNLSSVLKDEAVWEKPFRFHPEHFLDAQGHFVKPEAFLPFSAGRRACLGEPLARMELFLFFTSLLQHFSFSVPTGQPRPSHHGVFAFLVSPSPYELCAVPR
Cytochrome P450 2C9, sequence (P11712 whole entry): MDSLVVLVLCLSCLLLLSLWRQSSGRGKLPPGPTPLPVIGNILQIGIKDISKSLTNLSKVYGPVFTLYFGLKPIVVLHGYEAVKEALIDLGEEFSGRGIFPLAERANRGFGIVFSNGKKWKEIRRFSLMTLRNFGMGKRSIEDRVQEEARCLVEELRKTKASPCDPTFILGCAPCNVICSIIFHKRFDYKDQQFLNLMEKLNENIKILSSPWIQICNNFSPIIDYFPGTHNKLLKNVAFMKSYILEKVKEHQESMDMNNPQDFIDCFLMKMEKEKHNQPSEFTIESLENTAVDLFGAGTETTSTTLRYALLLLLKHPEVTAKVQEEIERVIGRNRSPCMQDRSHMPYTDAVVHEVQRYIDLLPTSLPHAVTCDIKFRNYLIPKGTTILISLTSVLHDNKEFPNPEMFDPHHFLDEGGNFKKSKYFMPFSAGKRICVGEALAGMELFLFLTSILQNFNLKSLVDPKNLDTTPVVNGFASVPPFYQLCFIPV

As for `COc1ccc(CC(=O)Nc2cccc(-c3nnc(-c4ccco4)o3)c2)cc1`, the results for the AC50 in [1] and in test [2] were 15.8 µM (inconclusive) and 20 µM (inconclusive), respectively.

As for `Oc1cc(-c2ccc(C3CCCCC3)cc2)[nH]n1`, the AC50 was 8 µM (active) in test [3] and 1.99 µM (active) in [5]. Also, the EC50 in test [4] is 1.01 µM (active).

As to `CC(C)(C)C(=O)NC(=S)NCCc1ccccc1`, the EC50 in [6] is > 53 µM (inactive). The IC50 in [7] was > 47.1 µM (inactive). Moreover, the AC50 in test [8] is 25.1 µM (inconclusive).

With `Nc1ccc(Cc2nc3c(ccc4ccccc43)[nH]2)cc1`, the EC50 in test [9] is 14 µM (active); in test [10], 14.7 µM (active); in test [11] it was 24.8 µM (active).

`COc1cccc(C2(O)CC(C(F)(F)F)=NN2C(=O)c2ccccn2)c1` (configuration not stated): the EC50 in test [9] is 18.5 µM (active); in test [10], 7.55 µM (active); in [11], > 120 µM (not active).

Take `CC(=O)c1cc(-c2ccccc2)n(CC(=O)NC2CCCC2)c1C`: the EC50 in test [9], in [10] and in test [11] was > 120 µM (not active) in each case.

Take `CSc1nc2ccc(S(=O)(=O)NC3CCCCC3)cc2s1`: in test [3], the AC50 is 8.57 µM (active).

Take `O=C1C2C3C=CC(CO)(O3)C2C(=O)N1c1ccc(-c2ccccc2)cc1` (configuration not stated): the EC50 in test [9] was > 120 µM (not active); in test [10], 15.5 µM (active); in test [11] it was 8.45 µM (active).

For the molecule `CCOC(=O)C1CCCN(C(=O)c2cccc(S(=O)(=O)N(Cc3ccccc3)c3ccccc3OC)c2)C1` (configuration not stated), the EC50 was 3.84 µM (active) in test [12], 35.2 µM (active) in test [13] and > 53 µM (inactive) in test [6]. Besides, the IC50 in test [7] is > 47.1 µM (inactive).

As for `CC(Sc1nnc(Cc2cccs2)n1C1CC1)C(=O)NC1CCS(=O)(=O)C1` (configuration not stated), the EC50 in test [6] was > 53 µM (inactive). In test [7], the IC50 is > 47.1 µM (inactive).

As for `COc1ccc(OC(=O)c2ccc(Cl)cc2)c(C(C)=O)c1`, the EC50 in test [6] is > 53 µM (inactive). Moreover, the IC50 in test [7] is > 47.1 µM (inactive).

Take `CC(C)(C)c1nc(CN2CCCCC2)cc(CN2CCCCC2)c1O`: the EC50 in [6] is > 53 µM (inactive). In addition, the IC50 in test [7] is > 47.1 µM (inactive).

As to `Cc1cc(C)cc(C(=O)NCC(=O)OCC(=O)NCC(F)(F)F)c1`, in test [14], the AC50 is 9.91 µM (active).

As for `c1ccc(CCn2nnnc2CN2CCCc3ccccc32)cc1`, the EC50 in test [6] is > 53 µM (inactive).

As for `C#CCCCC(=S)Nc1ccccc1`, the AC50 in test [15] was 39.8 µM (inconclusive); in test [2], 39.8 µM (inconclusive); in test [16], 39.8 µM (inconclusive); in test [8] it was 25.1 µM (inconclusive).

As for `COc1ccc(-c2cc3cc(OC)c(OC)cc3cn2)cc1OC`, the EC50 was 10.2 µM (active) in [9], 18 µM (active) in test [10] and 21.7 µM (active) in test [11].

As for `O=C(CSCC(=O)OCn1nnc2ccccc2c1=O)Nc1ccc(Cl)cc1`, the AC50 in test [1] and in test [2] was 25.1 µM (inconclusive) throughout.

As for `CC1(C)c2[nH]c3ccccc3c2C[C@H]2C(=O)N(Cc3ccccc3)C(=O)N21`, the EC50 in test [6] was > 53 µM (inactive). The IC50 in [7] was > 47.1 µM (inactive).

As to `COc1ccc(OCC(O)CN2CCc3ccccc3C2)cc1` (configuration not stated), in [6], the EC50 was > 53 µM (inactive). Further, the IC50 in test [7] was > 47.1 µM (inactive).

Regarding `COc1ccccc1-n1ccnc(SCC(=O)NCc2ccccc2Cl)c1=O`, the AC50 in test [14] was 13 µM (active).

Turning to `O=[N+]([O-])c1ccc(O)c(C2CCCCC2)c1`, the AC50 in test [3] was 8.09 µM (active).

As for `CCOC(=O)c1ccccc1N/C=C1\CCCCC1=O`, the AC50 was 35.5 µM (inconclusive) in test [2] and 39.8 µM (inconclusive) in [16].

With `O=C1NC(c2cccc([N+](=O)[O-])c2)=CCN1c1ccccc1O` [ICILLIN], the AC50 in test [1] is 31.6 µM (inconclusive); in [2], 20 µM (inconclusive).

As usually defined, the AC50 is the concentration giving half of the maximal activity seen.
